{"source": "patent US20070009455A1", "about": "(priority 2003, published 2007)", "key": {"[1]": {"system": "Human skin melanocytes", "assay": "Whitening activity test: melanin production in skin melanocytes", "type": "cell-based", "details": "for Melanin production inhibitory activity (%): concentration of each test sample: 0.02%", "experimental": "The whitening activity test based on […] of skin melanocytes was performed as the following method: • 1. Human skin melanocytes in MGM (Melanocyte Growth Media, Clonetics) media were incubated at a 5% CO2 incubator at 37° C. • 2. A predetermined number of cells (2×10^6) were cultured in75T culture flasks. When cell confluence was identified, test samples of a predetermined concentration were loaded in the cell cultures and incubated for 2-3 days. • 3. The cultures were removed, washed with phosphate buffered saline (PBS), and treated with trypsin solution, to harvest cells. • 4. The harvested cells were centrifuged to obtain cell pellets.\nThe colors of the cell pellets were observed. The cell pellets were dissolved in 1N NaOH and the absorbance was measured at 475 nm. • 5. The concentration of melanin was calculated by using absorbance values obtained from melanin standard and then converted to the concentration of melanin/the total protein concentration of melanocytes. […]=[(A−B)/A]×100\nA: concentration of melain/concentration of protein in control\n(control: melanocytes normally grown in a culture medium containing no test samples)\nB: concentration of melain/concentration of protein in each test sample\nTo evaluate whitening activity, inhibitory activity of the compositions of Examples 7 and Comparative Examples 6-8 against melanin production in melanocytes of healthy persons were measured and the results are summarized in Table 13 below."}, "[2]": {"system": "tyrosinase", "assay": "Tyrosinase inhibitory activity test", "type": "biochemical", "experimental": "Tyrosine used as a substrate in main processes of melanin biosynthesis, mushroom tyrosinase, or tyrosinase fragments separated from melanocytes was added to test samples and incubated for a predetermined time. The absorbance of dopachrome that was a reaction product was measured at an absorption wavelength to evaluate the whitening effects of the test samples. Tyrosinase inhibitory activity (%)=100−((ODexp−ODcon)/ODstd×100)\nODexp: Absorbance of test sample containing tyrosinase\nODcon: Absorbance of test sample containing no tyrosinase\nODstd: Absorbance of standard sample containing tyrosinase"}, "[3]": {"assay": "Free radical scavenging activity test (DPPH)", "experimental": "When methanol solutions of test samples were converted to clear solutions due to scavenging of relatively stable deep blue-colored DPPH(1,1-diphenyl-2-hydrazyl) radicals, the degree of reduction of the absorbance of the methanol solutions was measured at 516 nm. Free radical scavenging activity (%)=100−( (ODexp−ODcon)/ODstd×100)\nODexp: Absorbance of test sample containing DPPH\nODcon: Absorbance of test sample containing no DPPH\nODstd: Absorbance of standard sample containing DPPH"}}, "data": [{"smiles": "OC[C@H]1O[C@@H](Oc2ccc(O)cc2)[C@H](O)[C@@H](O)[C@@H]1O", "note": "[Albutin]", "values": [{"measurement": "Melanin production inhibitory activity (%)", "setting": "[1]", "result": 2.00, "unit": "%"}]}, {"smiles": "O=c1cc(CO)occ1O", "note": "[Cojic acid]", "values": [{"measurement": "Tyrosinase inhibitory activity (in words)", "setting": "[2]", "result": "excellent tyrosinase inhibitory activity"}, {"measurement": "Melanin production inhibitory activity (%)", "setting": "[1]", "result": 22.62, "unit": "%"}]}, {"smiles": "Oc1ccc(/C=C/c2cc(O)cc(O)c2)cc1", "note": "[Resveratrol]", "values": [{"measurement": "IC50: 50% tyrosinase activity inhibition concentration", "setting": "[2]", "result": 2, "unit": "µg/mL"}, {"measurement": "Tyrosinase inhibitory activity (in words)", "setting": "[2]", "result": "excellent tyrosinase inhibitory activity"}, {"measurement": "Inhibitory activity of melanin production (in words)", "setting": "[1]; 0.02%", "result": "excellent inhibitory activity of melanin production"}, {"measurement": "Melanin production inhibitory activity (%)", "setting": "[1]", "result": 53.17, "unit": "%"}]}, {"smiles": "O=C1O[C@H]([C@@H](O)CO)C(O)=C1O", "note": "[Vitamin C]", "values": [{"measurement": "Free radical scavenging (in words)", "setting": "[3]", "result": "effective free radical scavengers"}, {"measurement": "Melanin production inhibitory activity (%)", "setting": "[1]", "result": 19.72, "unit": "%"}]}]}
